The values below come from paper PMC5832771, “Recognition motif and mechanism of ripening inhibitory peptides in plant hormone receptor ETR1” (Scientific Reports, 2018).

The chains are these.
B1: extended peptide NIP-1 (peptide)
peptide: AFPKGKENLASVLKRYKRRL-NH2
notes: source: synthetic peptide, bought: GenScript (TFA salt, >98% HPLC purity)
B2: extended peptide N41P (peptide)
peptide: KDVEMAISSRKGRTGTAAGDVAFPKGKENLASVLKRYKRRL-NH2
notes: as for B1
B3: extended peptide N30P (peptide)
peptide: GRTGTAAGDVAFPKGKENLASVLKRYKRRL-NH2
notes: as for B1

Residues, ends and D or L forms follow the SMILES beside them. No end group written: not given here.

In one experiment the target is T1, AtETR1^1–307 (TM–GAF) (Arabidopsis thaliana, UniProt P49333).
T1 construct: made in house; host or cells: E. coli C43 (DE3)
Description: biochemical. The experiment is classed as binding.
Details: not given
In turn, `CC(C)C[C@H](NC(=O)[C@H](CCCNC(=N)N)NC(=O)[C@H](CCCNC(=N)N)NC(=O)[C@H](CCCCN)NC(=O)[C@H](Cc1ccc(O)cc1)NC(=O)[C@H](CCCNC(=N)N)NC(=O)[C@H](CCCCN)NC(=O)[C@H](CC(C)C)NC(=O)[C@@H](NC(=O)[C@H](CO)NC(=O)[C@H](C)NC(=O)[C@H](CC(C)C)NC(=O)[C@H](CC(N)=O)NC(=O)[C@H](CCC(=O)O)NC(=O)[C@H](CCCCN)NC(=O)CNC(=O)[C@H](CCCCN)NC(=O)[C@@H]1CCCN1C(=O)[C@H](Cc1ccccc1)NC(=O)[C@H](C)NC(=O)[C@@H](NC(=O)[C@H](CC(=O)O)NC(=O)CNC(=O)[C@H](C)NC(=O)[C@H](C)NC(=O)[C@@H](NC(=O)CNC(=O)[C@@H](NC(=O)[C@H](CCCNC(=N)N)NC(=O)CN)[C@@H](C)O)[C@@H](C)O)C(C)C)C(C)C)C(N)=O` [N30P] (H-GRTGTAAGDVAFPKGKENLASVLKRYKRRL-NH2) returned a dissociation constant Kd of 57 ± 19 nM.

Take `CC(C)C[C@H](NC(=O)[C@H](CCCNC(=N)N)NC(=O)[C@H](CCCNC(=N)N)NC(=O)[C@H](CCCCN)NC(=O)[C@H](Cc1ccc(O)cc1)NC(=O)[C@H](CCCNC(=N)N)NC(=O)[C@H](CCCCN)NC(=O)[C@H](CC(C)C)NC(=O)[C@@H](NC(=O)[C@H](CO)NC(=O)[C@H](C)NC(=O)[C@H](CC(C)C)NC(=O)[C@H](CC(N)=O)NC(=O)[C@H](CCC(=O)O)NC(=O)[C@H](CCCCN)NC(=O)CNC(=O)[C@H](CCCCN)NC(=O)[C@@H]1CCCN1C(=O)[C@H](Cc1ccccc1)NC(=O)[C@H](C)N)C(C)C)C(N)=O` [NIP-1] (H-AFPKGKENLASVLKRYKRRL-NH2): binding was characterised by a dissociation constant (Kd) of 68 ± 15 nM.

“KDVEMAISSRKGRTGTAAGDVAFPKGKENLASVLKRYKRRL-NH2 [N41P]” returned a Kd of 30 ± 10 nM.

A further experiment addresses T2, AtETR1^1–307 (TM–GAF) (Arabidopsis thaliana, UniProt P49333 1-307, Alexa Fluor 488 C5 maleimide (thiol-reactive) label).
T2 construct: pTEV-16b: N-terminal His10, linker SSGH, TEV site ENLYFQG; no cleavage described; source: E. coli C43 (DE3), purified (membranes solubilised in fos-choline-16, Ni-NTA HisTrap)
T2 sequence (looked up): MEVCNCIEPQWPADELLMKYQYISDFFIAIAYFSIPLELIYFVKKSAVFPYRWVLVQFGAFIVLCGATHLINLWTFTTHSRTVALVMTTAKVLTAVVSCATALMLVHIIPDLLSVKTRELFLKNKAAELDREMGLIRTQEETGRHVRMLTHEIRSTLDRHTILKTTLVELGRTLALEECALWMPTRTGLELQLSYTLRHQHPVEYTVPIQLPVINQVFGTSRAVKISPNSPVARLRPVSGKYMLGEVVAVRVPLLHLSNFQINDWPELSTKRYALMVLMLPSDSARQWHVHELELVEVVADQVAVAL
Description: MST; Alexa Fluor 488-labelled AtETR1 construct at 25 nM, peptide titrated; 50 mM Tris/HCl pH 8.0, 300 mM NaCl, 0.15 g/L fos-choline-16; 23-25 °C; temperature jump evaluated, one-binding-site model. The following applies: both partners purified.
Consider B1, for which the binding result is recorded as “binds”.

As to B2, the binding result is given as “binds”.

With B3, the binding result was “binds”.

The term Kd denotes a measure of binding affinity in units of concentration. A high value points to a looser complex.
